Results as given in patent US20180030091A1, “COLLAGEN-BINDING SYNTHETIC PEPTIDOGLYCANS FOR USE IN VASCULAR INTERVENTION” (Purdue Research Foundation, priority 2010, published 2018).
Entries after “also recorded” stand apart in the source; their conditions may differ. Where no end group is shown, it is not given here.

What was measured:
Fibrillar collagen [1] = experiment: Binding affinity of biotin labeled peptidoglycan to fibrillar collagen; details: biotin labeled peptidoglycans, fitted saturation binding curves
Method: Fibrillar collagen (Chronolog, Havertown, Pa.) was coated onto the surface of a 96-well high bind plate (Costar) at a concentration of 50 μg/mL diluted in isotonic glucose. Plates were covered and incubated overnight at 4° C. Unbound collagen was removed by rinsing 3 times with 1×PBS pH 7.4. Plates were then blocked with 1% BSA for 3 hours at room temperature. Peptidoglycan was dissolved at varying concentrations in 1×PBS pH 7.4 containing 1% BSA and were immediately added to the collagen surfaces, and allowed to incubate for 15 min at room temperature. Plates were then rinsed 3 times with 1×PBS pH 7.4 containing 1% BSA. Streptavidin-HRP solution (R&D Systems, Minneapolis, Minn.) was then added to the plates and incubated for 20 minutes at room temperature. […] The color evolving reaction was stopped with 50 μL 2N sulfuric acid and absorbance was measured at 450 nm using an M5 UV Vis Spectrophotometer (Molecular Devices). Plate imperfections (540 nm) were subtracted from absorbance values.
The binding affinities of biotin labeled peptidoglycans, labeled using protocols known in the art, DS-SILY4 and DS-SILY18 were calculated by fitting the saturation binding curves and calculating the inflection point. […]

[2] = test system: Human platelets on Type I fibrillar collagen; experiment: Inhibition of platelet activation on fibrillar collagen after 24 hour rinse (PF4, NAP2); type: cell-based; details: unbound peptidoglycan rinsed over 24 hours; PF-4 and Nap-2 release
Method: Type I fibrillar collagen from Chronolog was diluted in isotonic glucose to a concentration of 50 μg/mL. 50 μL of collagen solution was added to each well of a high bind 96-well plate. The plate was incubated overnight at 4° C., and then rinsed 3× with 1×PBS. For microplate assays, peptidoglycan was diluted in 1×PBS at concentrations between 0.0001 μM to 100 μM and 50 μL solution was added to the collagen coated wells. DS, peptide, or 1×PBS were also added to collagen coated wells as controls. Treatments were incubated at 37° C. with shaking at 200 rpm for 15 min. Wells were then rinsed of unbound treatment by removing the treatment solution, adding PBS, and shaking the wells for 24 hours. During the 24 hours, PBS solution was changed 3 times.
Human whole blood was collected from healthy volunteers by venipuncture. The first 5 mL of blood was discarded and approximately 20 mL was then collected into citrated glass vacutainers (BD Bioscience). Blood was centrifuged in the glass tube for 20 min at 200 g at 25° C. The top layer of the centrifuged blood, the platelet rich plasma (PRP), was used for platelet experiments.
PRP (50 μL/well) was added to the microplate for 1 hour at room temperature without shaking. After 1 hour of incubation, 45 μL of PRP was removed from each well and added to a microcentrifuge tube containing […] ETP (107 mM EDTA, 12 mM theophylline, and 2.8 mM prostaglandin E1) to inhibit further platelet activation. These tubes were spun at 4° C. for 30 min at 2000 g to pellet the platelets. The supernatant (platelet serum) was collected for ELISA studies to test for the presence of platelet activation markers PF-4 and NAP2. Sandwich ELISAs were utilized in order to detect each protein. The components for both sandwich ELISAs were purchased from R&D Systems and the provided protocols were followed. Platelet serum was diluted 10,000 times in 1% BSA in 1×PBS for values to fall within a linear range.
Platelet activation was measured through release of platelet factor 4 (PF4) and β-thromboglobulin (NAP2). […] Since the high SILY/DS ratio is expected to provide higher binding affinity to the collagen surface due to multiple interactions, peptidoglycans with the higher SILY/DS ratios were prepared.
The number of peptides per DS molecule was further increased to 18 to create the peptidoglycan DS-SILY18, and the concentration of molecule needed to inhibit platelet activation was tested. […] Within solubility limits, the number of peptides can be increased to achieve maximal platelet inhibition as well as to reduce diffusion over time, where a higher level of peptidoglycans on the denuded vessel wall is sustained.

Fibrillar collagen [3] = experiment: Peptidoglycan diffusion from collagen surface; type: binding; details: after 1 week of extensive rinsing at 37° C.; applied at 10 μM
Method: The peptidoglycan OS-SILY18-biotin was dissolved at 10 μM in 1×PBS pH 7.4 with 2% BSA and was incubated on fibrillar collagen coated plates prepared as described. The plate was incubated at 37° C. on an orbital shaker and was rinsed extensively with 1×PBS pH 7.4. At various time points up to 11 days, OS-SILY18-biotin was detected on the surface as described for the binding affinity studies. The curve of diffusion of peptidoglycan from the collagen surface was fitted using a hyperbolic decay.
The diffusion of the peptidoglycan DS-SILY18 from a collagen surface was measured by incubating at 37° C. and rinsing extensively in order to mimic blood flow in vivo. Peptidoglycan was incubated on fibrillar collagen surfaces and detected by the same methods for calculating binding affinities. […] It is estimated that complete endothelial cell regrowth occurs within 1 week of balloon injury, and thus this time frame is useful for preventing platelet binding until endothelial cells grow back and provide a permanent cover to the underlying collagen.

[4] = test system: Human coronary artery endothelial cells (ECs); experiment: Endothelial cell proliferation; type: cell-based; details: highest concentration tested (final concentrations 35, 3.5, and 0.35 μM); 48 hours
Method: Human coronary artery endothelial cells (ECs) (Lonza, Walkersville, Md.) were seeded in 96-well plates at a cell density of 1.5×10^3 cells/well. Cells were allowed to adhere to the surface for 24 hours and adherent ECs were stained using cell tracker green (Invitrogen, Carlsbad, Calif.). Initial cell number was determined by measuring fluorescence of each well with 492 nm excitation and 517 nm emission.
DS-SILY18 was solubilized in water at a concentration of […] and diluted in water 10 fold for concentrations of 175, 17.5, and 1.75 μM. The DS-SILY solution was diluted 5 fold with cell media for final concentrations of […]. The control consisted of diluting water 5 fold with cell media. 100 μL of media with DS-SILY was added to each well and the cell number was determined 48 hours later by measuring fluorescence. The percent change in cell number in each well was calculated.

[5] = test system: Whole blood on fibrillar collagen; experiment: Inhibition of whole blood binding to collagen under flow; type: cell-based; details: 50 μM for 15 min; 5.6 mL/hr, shear rate 1000 s^−1, 5 min of flow
Method: Flow kits were obtained from Ibidi (Martinsried, Germany). Each channel was coated with fibrillar collagen as described for static microplate studies. Excess collagen was removed from the flow channel by extensive rinsing with 1×PBS through the channel. DS-SILY18 was incubated in the channel at a concentration of 50 μM for 15 min at 37° C., and unbound peptidoglycan was rinsed with 1×PBS. Control channels consisted of collagen not treated with peptidoglycan.
Whole blood was pushed through the flow channels by a syringe pump at a flow rate of 5.6 mL/hr, corresponding to a physiologically relevant shear rate of 1000 s^−1 (Badimon L, Badimon J J, Turitto V T, Vallabhajosula S, Fuster V. Platelet thrombus formation on collagen type I—a model of deep vessel injury—influence of blood rheology, von Willebrand Factor, and blood-coagulation. Circulation 1988; 78(6):1431-42). After 5 min of flow, 1×PBS pH 7.4 was pushed through at the same flow rate for 10 min to wash unbound cells. Brightfield images (n=3) were taken of each flow channel with a 10× objective. Images were thresholded and quantified for cellular coverage using ImageJ (NIH, Bethesda, Md.) and MatLab (Mathworks, Natick, Mass.) respectively. Control channels were assumed to have complete cellular coverage.

DS-SILY18: dermatan sulfate with 18 peptides of the sequence RRANAALKAGELYKSILYGC linked to the glycan (RRANAALKAGELYKSILYGC-NH2; also: 18 copies linked to dermatan sulfate)
Kd (Fibrillar collagen [1]): 0.024 µM | concentration at which maximal inhibition of platelet activation was achieved [2]: 10 µM | equivalent concentration remaining bound on collagen surface (Fibrillar collagen [3]): approximately 10 nM | endothelial cell proliferation (percent change in cell number) [4]: significant increase in cell proliferation | blood cell binding to collagen under flow [5]: inhibition; also recorded: much less blood cell binding to collagen
